Reference: patent US20220235006A1, “PYRIDINE DERIVATIVES AS TMEM16A MODULATORS FOR USE IN THE TREATMENT OF RESPIRATORY CONDITIONS” (TMEM16A LIMITED, priority 2019, published 2022)
In brackets after ≈: the same amount, converted by molar mass.

Legend:
[1] = target: T1, human TMEM16A (TMEM16Aabc variant) (Homo sapiens, UniProt Q5XXA6, DEL476-501); experiment: Automated whole-cell patch clamp (Qpatch) TMEM16A potentiator assay in recombinant FRT cells; format: cell-based; details: for activation at 3.33 µM: percentage increase of baseline TMEM16A current, minimum n = 2, read-out: % Potentiation @ 3.33 uM Avg; for EC50: minimum n = 2
T1 sequence (Q5XXA6 with tags, fused parts or gaps isoform Q5XXA6-5 DEL539-564): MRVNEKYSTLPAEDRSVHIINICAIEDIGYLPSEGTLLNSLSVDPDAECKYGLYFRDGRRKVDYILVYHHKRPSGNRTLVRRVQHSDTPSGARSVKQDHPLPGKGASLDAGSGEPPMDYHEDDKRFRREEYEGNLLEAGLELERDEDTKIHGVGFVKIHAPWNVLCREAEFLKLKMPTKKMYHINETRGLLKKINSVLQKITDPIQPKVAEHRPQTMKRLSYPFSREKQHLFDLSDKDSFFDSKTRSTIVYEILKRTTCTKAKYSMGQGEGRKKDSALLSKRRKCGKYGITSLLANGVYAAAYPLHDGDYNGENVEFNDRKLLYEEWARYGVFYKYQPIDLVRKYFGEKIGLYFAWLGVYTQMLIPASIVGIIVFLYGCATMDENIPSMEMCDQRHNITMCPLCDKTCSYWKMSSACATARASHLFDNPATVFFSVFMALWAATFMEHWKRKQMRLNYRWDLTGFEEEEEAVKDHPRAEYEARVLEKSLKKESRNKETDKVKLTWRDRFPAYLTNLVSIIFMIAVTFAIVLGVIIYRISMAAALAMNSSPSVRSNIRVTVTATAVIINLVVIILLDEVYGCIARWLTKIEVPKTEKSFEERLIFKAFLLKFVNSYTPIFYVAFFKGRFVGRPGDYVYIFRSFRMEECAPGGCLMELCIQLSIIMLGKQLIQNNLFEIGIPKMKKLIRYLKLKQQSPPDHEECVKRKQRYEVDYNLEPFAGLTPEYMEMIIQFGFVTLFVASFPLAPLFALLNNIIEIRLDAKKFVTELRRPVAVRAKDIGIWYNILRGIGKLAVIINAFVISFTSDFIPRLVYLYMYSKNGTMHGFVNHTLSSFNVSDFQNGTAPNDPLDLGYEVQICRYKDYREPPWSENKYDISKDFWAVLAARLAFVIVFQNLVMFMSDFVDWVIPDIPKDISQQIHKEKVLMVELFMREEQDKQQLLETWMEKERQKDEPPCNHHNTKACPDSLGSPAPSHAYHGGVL
Procedure, shortened: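 FRT cells stably expressing human TMEM16Aabc, whole-cell automated patch clamp with intracellular Ca2+ buffered for ~20% maximal current (EC20). Held at −70 mV, step to +70 mV/ramp at 0.05 Hz, cumulative compound additions of 5 min each. Peak +70 mV current increase expressed as % potentiation of baseline.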

[2] = Kinetic solubility determination (high throughput); format: physicochemical; details: kinetic from dmso stock, sterile water, 5% DMSO, room temperature
Protocol: Test compounds (10 μL; 20 mM DMSO solution) were added to sterile water (190 μL) in triplicate and shaken at 300 rpm at room temperature. After 90 min. the test compounds were filtered by centrifuge (5 min. at 3000 rpm) to obtain the aqueous filtrate. Acetonitrile (20 μL) was dispensed into clean 96-well UV/VIS analysis plate and aqueous filtrate (80 μL) added and the plate analysed for test compound concentration using a Molecular Devices SPECTRAmax® plus microplate reader at the following wavelengths: (280, 300, 320, 340, 360, 800 nm). […] The diluted filtrate (80 μL) was then added to acetonitrile (20 μL) and the plate analysed. as previously.

[3] = Log D (pH7.4 shake flask); format: physicochemical; details: pH 7.4; 1-octanol/phosphate buffer shake flask; read-out: mLogD (pH 7.4)
Protocol: Phosphate buffer (1 M) was diluted to 20 mM with deionised water and adjusted to pH 7.4 with phosphoric acid or sodium hydroxide. 1-octanol and phosphate buffer (20 mM) were saturated overnight by tumbling. The two phases were separated using a separation funnel. 5 μL of 5 mM compound cassette was added to 495 μL of octanol-saturated buffer and 495 μL buffer saturated octanol in a 96-well plate (top concentration 50 μM). Plate was shaken for 1 h and centrifuged at 25° C. for 5 min. 200 μL of each phase was transferred to a separate plate. The octanol layer was sampled first to avoid cross contamination. 5 μL of the solutions were transferred to 495 μL of quench solution* (max concentration 0.5 μM). In addition, 40 μL of buffer solution was added to 360 μL of quench solvent (max concentration 5 μM). Samples were analysed by LC-MS/MS. Benchmarking against a calibration curve for each compound and with reference to the control compounds sulpride, diclofenac, chlorpromazine and tamoxifen. *Quench solution was a 1:3:1 mixture (v/v/v) of Acetonitrile containing 0.1% formic acid and imipramine/labetalol, 200 nM:Acetonitrile:Water.

Row | SMILES | activation at 3.33 µM [1] | EC50 [1] | solubility kinetic at 90 min [2] | logD [3]
1 | CC(C)(CO)c1cc(F)c(CC(=O)Nc2ccnc(C(=O)N[C@H]3CCC[C@@H]3O)c2)cc1O [Example 12.2, 4-[[2-[2-Fluoro-5-hydroxy-4-(2-hydroxy-1,1-dimethyl-ethyl)phenyl]acetyl]amino]-N-[(1S,2S)-2-hydroxycyclopentyl]pyridine-2-carboxamide] | 142% | 0.238 µM | 296 µg/mL (≈ 664 µM) | 2.6
2 | CC1(NC(=O)c2cc(NC(=O)Cc3cc(O)c(C(C)(C)CO)cc3Cl)ccn2)CC(F)(F)C1 [Example 15.2, 4-[[2-[2-Chloro-5-hydroxy-4-(2-hydroxy-1,1-dimethyl-ethyl)phenyl]acetyl]amino]-N-(3,3-difluoro-1-methyl-cyclobutyl)pyridine-2-carboxamide] | 195% | 0.036 µM | 44 µg/mL (≈ 91.3 µM) | > 4.2
3 | CC(C)(CO)c1cc(F)c(CC(=O)Nc2ccnc(C(=O)NC3(C(F)(F)F)CC3)c2)c(F)c1O [Example 16.4, 4-[[2-[2,6-Difluoro-3-hydroxy-4-(2-hydroxy-1,1-dimethyl-ethyl)phenyl]acetyl]amino]-N-[1-(trifluoromethyl)cyclopropyl]pyridine-2-carboxamide] | 280% | 0.018 µM | 75 µg/mL (≈ 154 µM) | 3.6
